This is an account of results in PubChem BioAssay (NCI).

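Following 48 hours of exposure in 96-well plates, responses at five concentrations were used to interpolate endpoints linearly. GI50 is the concentration that inhibits growth by half. TGI is the concentration that stops growth completely.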 A value given as a limit tells only on which side of the number the result lay.

What all share (assay): NCI anticancer screen, dose series, 48 h
In test [1] the test system is TK-10 renal.
For test [2], the system named is UACC-62 melanoma.
Test [3] relates to MALME-3M melanoma.
Test [4] relates to KM12 colon.
Test [5] has as its system HCT-15 colon.
In test [6] the test system is ACHN renal.
Test [7] relates to RXF 393 renal.
The test system of test [8] is SNB-75 CNS.
The test system of test [9] is NCI-H460 lung.
The subject of test [10] is A549 NSCLC.

Take `CC1(C)CCC[C@]23C(=O)O[C@](O)(C(=O)C4=C[C@@](C)(/C=C/CCCc5ccc6ccc7cccc8ccc5c6c78)CC[C@@]42O)[C@@H]13`: the GI50 in test [1] was 196 nM; in [2], 176 nM; in test [3], 177 nM; in [4], 154 nM; in test [5], 148 nM; in test [6] it was 156 nM. Further, the GI50 in test [7] is 174 nM; in [8], 149 nM; in test [9] it was 180 nM; in test [10], 202 nM. For the same molecule, the TGI came to 423 nM in test [1]; 343 nM in test [2]; 332 nM in test [3]; 340 nM in [4]; 425 nM in test [5]; 290 nM in test [6]. The TGI in [7] was 335 nM; in [8], 284 nM; in test [9] it was 374 nM; in test [10] it was 678 nM.

Turning to `CC[C@@]1(O)C(=O)NCc2c1cc1n(c2=O)Cc2cc3ccccc3nc2-1`, the GI50 was over 100000 nM in test [1]; 1870 nM in test [2]; 83900 nM in [3]; over 50600 nM in test [4]; 25800 nM in test [5]; 578 nM in [6]. Further, the GI50 in [7] is 6110 nM; in [8], 4220 nM; in test [9], 556 nM; in [10], 2370 nM. The TGI in test [1] is over 100000 nM; in [2], over 100000 nM; in [3], over 100000 nM; in test [4], over 100000 nM; in test [5], over 100000 nM; in test [7] it was over 80600 nM. Further, the TGI was over 28500 nM in test [8], over 59200 nM in test [9] and over 100000 nM in test [10].
